Test results as given in PubChem BioAssay AID1963863 (Molecular Pharmacology Branch, DTP, NCI, 2024).

Tested on: 931267-113-T-J1-PDC KRAS spheroid with HUVEC/MSC, viability
Assay: Anticancer human tumor 931267-113-T-J1-PDC patient-derived colon adenocarcinoma cell line growth inhibition [KRAS2]
Settings: for viability, T/C: stronger effect = lower value
Procedure, shortened: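 Combination screen of spheroid viability in tumor-cell co-cultures with endothelial (HUVEC) and mesenchymal stem cell stroma. Each agent was tested in half-log dilutions, topping at clinical Cmax or at 10 microM without a known Cmax.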

[1] = curve of first compound, second compound 0.1 µM
[2] = curve of first compound, second compound 0.316 µM
[3] = curve of first compound, second compound 1 µM
[4] = curve of first compound, second compound 3.16 µM
[5] = curve of first compound, second compound 10 µM
[6] = second compound 0.1 µM, first compound 0.0316 µM
[7] = second compound 0.1 µM, first compound 0.1 µM
[8] = second compound 0.1 µM, first compound 0.316 µM
[9] = second compound 0.1 µM, first compound 1 µM
[10] = second compound 0.1 µM, first compound 3.16 µM
[11] = second compound 0.1 µM, first compound 10 µM
[12] = second compound 0.316 µM, first compound 0.0316 µM
[13] = second compound 0.316 µM, first compound 0.1 µM
[14] = second compound 0.316 µM, first compound 0.316 µM
[15] = second compound 0.316 µM, first compound 1 µM
[16] = second compound 0.316 µM, first compound 3.16 µM
[17] = second compound 0.316 µM, first compound 10 µM
[18] = second compound 1 µM, first compound 0.0316 µM
[19] = second compound 1 µM, first compound 0.1 µM
[20] = second compound 1 µM, first compound 0.316 µM
[21] = second compound 1 µM, first compound 1 µM
[22] = second compound 1 µM, first compound 3.16 µM
[23] = second compound 1 µM, first compound 10 µM
[24] = second compound 3.16 µM, first compound 0.0316 µM
[25] = second compound 3.16 µM, first compound 0.1 µM
[26] = second compound 3.16 µM, first compound 0.316 µM
[27] = second compound 3.16 µM, first compound 1 µM
[28] = second compound 3.16 µM, first compound 3.16 µM
[29] = second compound 3.16 µM, first compound 10 µM
[30] = second compound 10 µM, first compound 0.0316 µM
[31] = second compound 10 µM, first compound 0.1 µM
[32] = second compound 10 µM, first compound 0.316 µM
[33] = second compound 10 µM, first compound 1 µM
[34] = second compound 10 µM, first compound 3.16 µM
[35] = second compound 10 µM, first compound 10 µM
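Further: compound exposure lasted 7 days before the readout.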
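Wherever viability, T/C is given: 100% = DMSO vehicle control viability.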

Compound	IC50 [1] [nM]	IC50 [2] [nM]	IC50 [3] [nM]	IC50 [4] [nM]	viability, T/C [6] [%]	viability, T/C [7] [%]	viability, T/C [8] [%]	viability, T/C [9] [%]	viability, T/C [10] [%]	viability, T/C [12] [%]	viability, T/C [13] [%]	viability, T/C [14] [%]	viability, T/C [15] [%]	viability, T/C [16] [%]	viability, T/C [18] [%]	viability, T/C [19] [%]	viability, T/C [20] [%]	viability, T/C [21] [%]	viability, T/C [22] [%]	viability, T/C [24] [%]	also measured
Cn1nccc1Nc1nccc(-c2cc3c(s2)C(C)(C)N(CCN2CCOCC2)C3=O)n1 + CC1OCC2(CCN(c3cnc(Sc4ccnc(N)c4Cl)c(N)n3)CC2)C1N	362	317	203	218	79.4	86.3	48.3	25.2	7.4	70.6	76.3	46	22.8	4.01	72.8	55.5	47.5	18.1	4.05	76.4	IC50 [5]: 275 nM; viability, T/C [11]: 2.95%; viability, T/C [17]: 2.65%; viability, T/C [23]: 2.39%; viability, T/C [25]: 60.6%; viability, T/C [26]: 45.8%; viability, T/C [27]: 8.81%; viability, T/C [28]: 4.98%; viability, T/C [29]: 2.71%; viability, T/C [30]: 72.4%; viability, T/C [31]: 71.6%; viability, T/C [32]: 47%; viability, T/C [33]: 3.56%; viability, T/C [34]: 2.05%; viability, T/C [35]: 2.15%
CC1(C)CCC(CN2CCN(c3ccc(C(=O)NS(=O)(=O)c4ccc(NCC5CCOCC5)c([N+](=O)[O-])c4)c(Oc4cnc5[nH]ccc5c4)c3)CC2)=C(c2ccc(Cl)cc2)C1 + CNCc1ccccc1-c1csc(C(C)Nc2nc(C)nc3cc(OC)c(OC)cc23)c1	1920	1750	< 31.6	< 31.6	107	95.7	106	83.6	24	82.6	69.5	83.6	81.1	19.3	41.8	47.4	54	39.2	4.62	0.12	IC50 [5]: < 31.6 nM; viability, T/C [11]: 4.79%; viability, T/C [17]: 1.1%; viability, T/C [23]: 0.48%; viability, T/C [25]: 0.09%; viability, T/C [26]: 0.2%; viability, T/C [27]: 0.08%; viability, T/C [28]: 0.05%; viability, T/C [29]: 0.38%; viability, T/C [30]: 0.18%; viability, T/C [31]: 0.28%; viability, T/C [32]: 0.14%; viability, T/C [33]: 0.17%; viability, T/C [34]: 0.44%; viability, T/C [35]: 1.23%
CC1OCC2(CCN(c3cnc(Sc4ccnc(N)c4Cl)c(N)n3)CC2)C1N (stereo not given) + CNCc1ccccc1-c1csc(C(C)Nc2nc(C)nc3cc(OC)c(OC)cc23)c1	> 10000	> 10000	31.6	< 31.6	96.8	70.7	66.5	68.3	61.1	88.6	89.3	72	63.2	78.8	51.3	44.8	54.2	33.1	33.2	0.09	IC50 [5]: < 31.6 nM; viability, T/C [11]: 59.8%; viability, T/C [17]: 81.8%; viability, T/C [23]: 27.5%; viability, T/C [25]: 0.09%; viability, T/C [26]: 0.08%; viability, T/C [27]: 0.08%; viability, T/C [28]: 0.08%; viability, T/C [29]: 0.17%; viability, T/C [30]: 0.12%; viability, T/C [31]: 0.19%; viability, T/C [32]: 0.13%; viability, T/C [33]: 0.13%; viability, T/C [34]: 0.12%; viability, T/C [35]: 0.17%
COC(=O)c1ccc2c(C(=Nc3ccc(N(C)C(=O)CN4CCN(C)CC4)cc3)c3ccccc3)c(O)[nH]c2c1 + C=CC(=O)N1CCN(c2nc(OCC3CCCN3C)nc3c2CCN(c2cccc4cccc(C)c24)C3)CC1CC#N	1170	647	120	< 31.6	73.9	76.4	64.5	57.8	0.37	95	88.8	67.6	42.8	0.3	47.2	63.7	20.4	0.52	0.13	0.24	IC50 (curve of first compound, second compound 0.0316 µM): 683 nM; viability, T/C (second compound 0.0316 µM, first compound 0.0316 µM): 90.5%; viability, T/C (second compound 0.0316 µM, first compound 0.1 µM): 87.1%; viability, T/C (second compound 0.0316 µM, first compound 0.316 µM): 61.1%; viability, T/C (second compound 0.0316 µM, first compound 1 µM): 50.7%; viability, T/C (second compound 0.0316 µM, first compound 3.16 µM): 0.59%; viability, T/C (second compound 0.0316 µM, first compound 10 µM): 0.32%; viability, T/C [11]: 0.38%; viability, T/C [17]: 0.2%; viability, T/C [23]: 0.19%; viability, T/C [25]: 0.16%; viability, T/C [26]: 0.25%; viability, T/C [27]: 0.15%; viability, T/C [28]: 0.21%; viability, T/C [29]: 0.22%
CC1COCCN1c1cc(-c2ccnn2C)c2ccnc(-c3ccn[nH]3)c2n1 (stereo not given) + COc1cc2nc(C)nc(NC(C)c3cc(N)cc(C(F)(F)F)c3)c2cc1OC1CCOC1	45.2	43	27.9	33.3	61.2	25	19.5	15.1	15.2	59.3	24.5	17.8	15.4	15.3	46.6	24.1	13.6	17.7	15.9	51.6	IC50 [5]: < 10 nM; viability, T/C (second compound 0.1 µM, first compound 0.01 µM): 75.4%; viability, T/C (second compound 0.316 µM, first compound 0.01 µM): 83.4%; viability, T/C (second compound 1 µM, first compound 0.01 µM): 76.3%; viability, T/C (second compound 3.16 µM, first compound 0.01 µM): 70.4%; viability, T/C [25]: 16.2%; viability, T/C [26]: 11.2%; viability, T/C [27]: 15%; viability, T/C [28]: 14%; viability, T/C (second compound 10 µM, first compound 0.01 µM): 1.71%; viability, T/C [30]: 2.62%; viability, T/C [31]: 3.95%; viability, T/C [32]: 1.66%; viability, T/C [33]: 2.29%; viability, T/C [34]: 1.1%
O=C(c1cc(Cc2n[nH]c(=O)c3ccccc23)ccc1F)N1CCN(C(=O)C2CC2)CC1	–	–	–	–	–	–	–	–	–	–	–	–	–	–	–	–	–	–	–	–	viability, T/C (compound 0.0316 µM): 83% [middle of 5 runs]; viability, T/C (compound 0.1 µM): 93% [middle of 5 runs]; viability, T/C (compound 0.316 µM): 87.8% [middle of 5 runs]; viability, T/C (compound 3.16 µM): 88.3% [middle of 5 runs]; viability, T/C (compound 10 µM): 80.5% [middle of 5 runs]; IC50 (curve of compound): > 10000 nM
C=CC(=O)N1CCN(c2nc(=O)n(-c3c(C)ccnc3C(C)C)c3nc(-c4c(O)cccc4F)c(F)cc23)C(C)C1 (stereo not given)	–	–	–	–	–	–	–	–	–	–	–	–	–	–	–	–	–	–	–	–	viability, T/C (compound 0.1 µM): 92.7% [middle of 17 runs]; IC50 (compound alone, run of 08/19/2021): > 10000 nM; IC50 (compound alone, run of 08/26/2021): > 10000 nM; IC50 (compound alone, run of 09/02/2021): > 10000 nM
CC(C)NCC(C(=O)N1CCN(c2ncnc3c2C(C)CC3O)CC1)c1ccc(Cl)cc1 (stereo not given) + CC1OCC2(CCN(c3cnc(Sc4ccnc(N)c4Cl)c(N)n3)CC2)C1N	3560	3720	5160	1850	78.8	71.7	87	64.4	53.3	86.4	73.5	81.7	75.2	53	95	56.9	75.5	59.4	63.7	78.2	IC50 [5]: 2270 nM; viability, T/C [11]: 37.3%; viability, T/C [17]: 32.2%; viability, T/C [23]: 39%; viability, T/C [25]: 77.3%; viability, T/C [26]: 74.4%; viability, T/C [27]: 56.3%; viability, T/C [28]: 44.6%; viability, T/C [29]: 35%; viability, T/C [30]: 73.8%; viability, T/C [31]: 67.9%; viability, T/C [32]: 76.7%; viability, T/C [33]: 52.8%; viability, T/C [34]: 48.8%; viability, T/C [35]: 22.5%
